From the NIST ThermoML archive (doi:10.1016/j.jct.2016.01.021)
Numbers after ± are expanded uncertainties.

Tests used:
[1] = xn = mol fraction of the nth substance listed; settings: 100 kPa, Liquid, x1 = 1; for viscosity: Capillary tube (Ostwald / Ubbelohde) method; for mass density: Vibrating tube method
[2] = 100 kPa, Liquid; for viscosity: Capillary tube (Ostwald / Ubbelohde) method; for mass density: Vibrating tube method

Structure (SMILES)	viscosity ([1]; 298.15 K) [mPa·s]	mass density ([1]; 298.15 K) [kg/m3]	viscosity ([1]; 303.15 K) [mPa·s]	mass density ([1]; 303.15 K) [kg/m3]	viscosity ([1]; 308.15 K) [mPa·s]	mass density ([1]; 308.15 K) [kg/m3]	viscosity ([1]; 313.15 K) [mPa·s]	mass density ([1]; 313.15 K) [kg/m3]	viscosity ([2]; 298.15 K) [mPa·s]	mass density ([2]; 298.15 K) [kg/m3]	viscosity ([2]; 303.15 K) [mPa·s]	mass density ([2]; 303.15 K) [kg/m3]	viscosity ([2]; 308.15 K) [mPa·s]	mass density ([2]; 308.15 K) [kg/m3]	viscosity ([2]; 313.15 K) [mPa·s]	mass density ([2]; 313.15 K) [kg/m3]	viscosity ([2]; 318.15 K) [mPa·s]	mass density ([2]; 318.15 K) [kg/m3]	viscosity ([2]; 323.15 K) [mPa·s]	mass density ([2]; 323.15 K) [kg/m3]	other results
CCCCCCCCCCCCCCCC [hexadecane] + CCCCCCCCCCCC(=O)OCC	3.085 ± 0.066	769.92 ± 0.83	2.756 ± 0.059	766.51 ± 0.83	2.478 ± 0.053	763.06 ± 0.83	2.239 ± 0.048	759.6 ± 0.83	–	–	–	–	–	–	–	–	–	–	–	–	viscosity ([1]; 318.15 K): 2.034 ± 0.043 mPa·s; mass density ([1]; 318.15 K): 756.14 ± 0.83 kg/m3; viscosity ([1]; 323.15 K): 1.857 ± 0.04 mPa·s; mass density ([1]; 323.15 K): 752.68 ± 0.83 kg/m3
CCCCCCCCCCCCCCCC [hexadecane] + CCCCCCCCCC(=O)OCC	3.085 ± 0.066	769.92 ± 0.83	2.756 ± 0.059	766.51 ± 0.83	2.478 ± 0.053	763.06 ± 0.83	2.239 ± 0.048	759.6 ± 0.83	–	–	–	–	–	–	–	–	–	–	–	–	viscosity ([1]; 318.15 K): 2.034 ± 0.043 mPa·s; mass density ([1]; 318.15 K): 756.14 ± 0.83 kg/m3; viscosity ([1]; 323.15 K): 1.857 ± 0.04 mPa·s; mass density ([1]; 323.15 K): 752.68 ± 0.83 kg/m3
CCCCCCCCCCCC(=O)OCC [ethyl dodecanoate]	–	–	–	–	–	–	–	–	3.015 ± 0.064	858.19 ± 0.83	2.704 ± 0.057	854.3 ± 0.83	2.439 ± 0.052	850.4 ± 0.83	2.213 ± 0.047	846.5 ± 0.83	2.016 ± 0.043	842.6 ± 0.83	1.846 ± 0.039	838.7 ± 0.83	–
CCCCCCCCCCCCCCCC [hexadecane]	–	–	–	–	–	–	–	–	3.085 ± 0.066	769.92 ± 0.83	2.756 ± 0.059	766.51 ± 0.83	2.478 ± 0.053	763.06 ± 0.83	2.239 ± 0.048	759.6 ± 0.83	2.034 ± 0.043	756.14 ± 0.83	1.857 ± 0.04	752.68 ± 0.83	–
CCCCCCCCCC(=O)OCC [ethyl decanoate]	–	–	–	–	–	–	–	–	2.115 ± 0.045	860.05 ± 0.83	1.919 ± 0.041	855.99 ± 0.83	1.75 ± 0.037	851.92 ± 0.83	1.603 ± 0.034	847.85 ± 0.83	1.474 ± 0.031	843.77 ± 0.83	1.362 ± 0.029	839.69 ± 0.83	–
CCCCCCCCCCCCCCCC [hexadecane] + CCCCCCCC(=O)OCC	3.085 ± 0.066	769.92 ± 0.83	2.756 ± 0.059	766.51 ± 0.83	2.478 ± 0.053	763.06 ± 0.83	2.239 ± 0.048	759.6 ± 0.83	–	–	–	–	–	–	–	–	–	–	–	–	viscosity ([1]; 318.15 K): 2.034 ± 0.043 mPa·s; mass density ([1]; 318.15 K): 756.14 ± 0.83 kg/m3; viscosity ([1]; 323.15 K): 1.857 ± 0.04 mPa·s; mass density ([1]; 323.15 K): 752.68 ± 0.83 kg/m3
CCCCCCCC(=O)OCC [ethyl octanoate]	–	–	–	–	–	–	–	–	1.428 ± 0.03	862.64 ± 0.83	1.313 ± 0.028	858.34 ± 0.83	1.211 ± 0.026	854.04 ± 0.83	1.121 ± 0.024	849.72 ± 0.83	1.042 ± 0.022	845.39 ± 0.83	0.971 ± 0.021	841.06 ± 0.83	–
